The values below come from ChEMBL document CHEMBL1155779, “Characterization of the PON1 active site using modeling simulation, in relation to PON1 lactonase activity” (Bioorg Med Chem, 2008).

SMILES strings stand for the structures.

The target in this assay is Serum paraoxonase/arylesterase 1 (Homo sapiens) (UniProt P27169). The assay is described as follows: Activity at human recombinant PON1 assessed as hydrolysis of lactone ring at 1 mM by Ellman's method. (In general: In Ellman's method for cholinesterases, released thiocholine reacts with DTNB.)
Serum paraoxonase/arylesterase 1 (Homo sapiens), sequence (P27169 whole entry): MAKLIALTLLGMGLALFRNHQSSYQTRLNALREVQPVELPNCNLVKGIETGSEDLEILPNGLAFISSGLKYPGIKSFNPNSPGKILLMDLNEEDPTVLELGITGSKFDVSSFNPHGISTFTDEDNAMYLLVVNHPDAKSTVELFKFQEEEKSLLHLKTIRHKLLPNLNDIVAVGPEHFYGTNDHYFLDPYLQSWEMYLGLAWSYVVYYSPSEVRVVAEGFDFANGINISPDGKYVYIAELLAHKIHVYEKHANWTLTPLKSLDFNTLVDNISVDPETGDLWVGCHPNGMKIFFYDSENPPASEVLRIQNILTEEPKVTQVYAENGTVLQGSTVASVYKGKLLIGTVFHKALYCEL

Take `CC1=CCC(=O)O1`: the Activity came out at 18.3 µmol/min/mg. Take `O=C1C[C@@H]2C=CC[C@@H]2O1`: the Activity was determined as 1.67 µmol/min/mg. The figure for `O=C1C[C@H]2C=CC[C@H]2O1` is 0.83 µmol/min/mg; for `O=C1Cc2cc(O)ccc2O1` it is 33 µmol/min/mg. `C[C@H]1CC(=O)O1`: the Activity came out at 3.83 µmol/min/mg. For `O=C1Cc2ccccc2O1`, the Activity amounted to 13.6 µmol/min/mg.

In the case of `O=C(O)Cc1ccccc1`, the Activity stood at 112 µmol/min/mg.
